Results on 50 compounds are retold here after the Biogen ADME set (Fang et al. 2023).

≈ marks a conversion by molar mass, not a printed value.

The conditions of this data set: for aqueous solubility: pH 6.8.

In general, aqueous solubility refers to the dissolved amount per volume that the medium holds. High values mean much dissolved substance, low ones little dissolved substance. Turning to `CC(C)COc1cc(F)cc(-c2cncc(C(=O)N3CCCC3)n2)c1`, the MDR1-MDCK efflux ratio worked out at 0.442 and the aqueous solubility stood at 0.7 µg/mL (≈ 2.04 µM).
On to `COCCc1noc(CN(C)C(=O)c2ccc3c(c2)CCC3)n1`, for which the MDR1-MDCK efflux ratio is 0.812; the intrinsic clearance, human liver microsomes came out at 10.4 mL/min/kg; the intrinsic clearance, rat liver microsomes worked out at 263 mL/min/kg.
On the same counts, the results for `CCc1nnc(Sc2nc3cc(C)nn3c3ccccc23)[nH]1` are 1.21, 13.7 mL/min/kg and 139 mL/min/kg.
Turning to `Nc1nccc2c1ncn2[C@H]1C=C(CO)[C@@H](O)[C@H]1O`, the intrinsic clearance, human liver microsomes is at most 4.74 mL/min/kg and the intrinsic clearance, rat liver microsomes came out at 16.3 mL/min/kg.
On to `CNCc1cc(N(C)C)nc(C2CCCN2C(=O)COc2ccc(F)cc2)n1` (stereo not drawn), for which the MDR1-MDCK efflux ratio stood at 46.7; the intrinsic clearance, human liver microsomes was at most 4.74 mL/min/kg; the intrinsic clearance, rat liver microsomes amounted to 244 mL/min/kg.
`COc1ccc(CNC(=O)CCSc2nc3c(=O)n(C)c(=O)n(C)c3n2C)cc1`: the intrinsic clearance, human liver microsomes is 52 mL/min/kg and the intrinsic clearance, rat liver microsomes was 247 mL/min/kg.
Take `c1ccc2nc(NCCn3ccnc3)cnc2c1`: the MDR1-MDCK efflux ratio is 3.5; the intrinsic clearance, human liver microsomes came to 8.75 mL/min/kg; the intrinsic clearance, rat liver microsomes turned out to be 441 mL/min/kg.
As for `COc1ccc2nc(C)c(C(=O)Nc3ccccc3N3CCCC3)cc2c1`, the MDR1-MDCK efflux ratio turned out to be 0.484; the intrinsic clearance, human liver microsomes came out at 182 mL/min/kg; the intrinsic clearance, rat liver microsomes came to 985 mL/min/kg; the aqueous solubility was determined as 8.4 µg/mL (≈ 23.2 µM).
On the same counts, the results for `CCCN(CC)c1ccc(C(=O)N2CCCN(C(C)=O)CC2)cc1` are 6.92, 25.7 mL/min/kg, 308 mL/min/kg and 48.4 µg/mL (≈ 146 µM).
With `COc1cccc(O[C@H]2CCN(C(=O)c3cc(-c4ccc(C)cc4)on3)CC[C@@H]2O)c1`, the MDR1-MDCK efflux ratio amounted to 0.721; the intrinsic clearance, human liver microsomes was 82.3 mL/min/kg; the intrinsic clearance, rat liver microsomes amounted to 1060 mL/min/kg.
In turn, `CC1(C)CC(=O)c2c(C(F)(F)F)nn(-c3ccc(C(N)=O)c(N[C@H]4CC[C@H](OC(=O)CN)CC4)c3)c2C1` had an intrinsic clearance, human liver microsomes of 204 mL/min/kg and an intrinsic clearance, rat liver microsomes of 469 mL/min/kg.
As to `Cc1c(C)n(Cc2ccccc2)c2ncnc(N)c12`, the MDR1-MDCK efflux ratio came out at 0.607; the intrinsic clearance, human liver microsomes worked out at 16 mL/min/kg; the intrinsic clearance, rat liver microsomes stood at 516 mL/min/kg; the aqueous solubility stood at 43.1 µg/mL (≈ 171 µM).
With `Cn1c(-c2n[nH]c3c2CCCC3)nnc1N1CCC2(CNC(=O)C2)C1` (stereo not drawn), the MDR1-MDCK efflux ratio was 5.01; the fraction unbound, human plasma was 0.621; the intrinsic clearance, human liver microsomes is at most 4.74 mL/min/kg.
As for `COC1(c2nc(Cc3ccccc3)no2)CCN(Cc2ncccc2Cl)CC1`, the MDR1-MDCK efflux ratio was 0.76; the intrinsic clearance, human liver microsomes is 123 mL/min/kg; the intrinsic clearance, rat liver microsomes was 1780 mL/min/kg.
On the same counts, the results for `Cc1cccc(NCCN2C(=O)CCC2=O)n1` are 0.667, at most 4.74 mL/min/kg and 49.9 mL/min/kg.
`CN(C)c1cccc(C2CCN(c3ncccn3)CC2)n1` yielded an intrinsic clearance, human liver microsomes of 94.4 mL/min/kg; an intrinsic clearance, rat liver microsomes of 2250 mL/min/kg; an aqueous solubility of 16.9 µg/mL (≈ 59.5 µM).
With `c1cnc(-n2cccn2)c(CNC2CCCC2)c1`, the MDR1-MDCK efflux ratio stood at 0.951; the intrinsic clearance, human liver microsomes is at most 4.74 mL/min/kg; the intrinsic clearance, rat liver microsomes stood at 40.3 mL/min/kg; the aqueous solubility was 30.4 µg/mL (≈ 125 µM).
Consider `N#C/C(=C\c1cnn(Cc2ccccc2)c1)c1nc2cc(Cl)ccc2c(=O)[nH]1`, for which the MDR1-MDCK efflux ratio was found to be 1.17 and the aqueous solubility is 0.17 µg/mL (≈ 0.438 µM).
For `O=C(Nc1ccc2c3c(cccc13)CC2)c1ccc(-n2cncn2)cc1`, in that order: 0.473 and 0.18 µg/mL (≈ 0.529 µM).
Take `O=S(=O)(c1cccnc1)N1CCC2(Cc3ccccc3C2)C1`: the MDR1-MDCK efflux ratio was found to be 0.627; the intrinsic clearance, human liver microsomes came to 91.2 mL/min/kg; the intrinsic clearance, rat liver microsomes came out at 5070 mL/min/kg.
In the case of `CS(=O)(=O)N1CCc2cc(C(=O)NCCOc3ccc4ccccc4c3)ccc21`, the MDR1-MDCK efflux ratio worked out at 1.68 and the aqueous solubility was found to be 0.44 µg/mL (≈ 1.07 µM).
In the case of `O=C(NN1CCOCC1)c1ccc(Cl)c(Cl)c1`, the MDR1-MDCK efflux ratio amounted to 0.691; the intrinsic clearance, human liver microsomes is at most 4.74 mL/min/kg; the intrinsic clearance, rat liver microsomes was at most 10.7 mL/min/kg.
For `Cc1nn(CCNS(=O)(=O)N2CCOCC2)c(C)c1C`, the MDR1-MDCK efflux ratio was 8.58; the intrinsic clearance, human liver microsomes is 6.58 mL/min/kg; the intrinsic clearance, rat liver microsomes worked out at 265 mL/min/kg.
As for `CCCc1cc(CNC(=O)N2C[C@H]3C[C@@H](C2)c2cccc(=O)n2C3)on1`, the MDR1-MDCK efflux ratio came out at 16.4; the intrinsic clearance, human liver microsomes was 16.6 mL/min/kg; the intrinsic clearance, rat liver microsomes was found to be 90.4 mL/min/kg.
Consider `CC(=O)Nc1ccc2nc(N3CCOCC3)sc2c1`, for which the MDR1-MDCK efflux ratio came to 0.807; the intrinsic clearance, human liver microsomes was at most 4.74 mL/min/kg; the intrinsic clearance, rat liver microsomes is 23.1 mL/min/kg; the aqueous solubility was determined as 44 µg/mL (≈ 159 µM).
On to `CC(=O)N1CCC(CNc2nccc3cccnc23)CC1`, for which the MDR1-MDCK efflux ratio amounted to 1.9; the intrinsic clearance, human liver microsomes was at most 4.74 mL/min/kg; the intrinsic clearance, rat liver microsomes was 80.8 mL/min/kg.
Turning to `CC(C)c1ccccc1OC(=O)NCCc1ccc2ccccc2c1`, the MDR1-MDCK efflux ratio worked out at 0.492 and the aqueous solubility amounted to 0.71 µg/mL (≈ 2.13 µM).
In turn, `COc1ccc(N)cc1N1CCOC1=O` had an intrinsic clearance, human liver microsomes of at most 4.74 mL/min/kg; an intrinsic clearance, rat liver microsomes of at most 10.7 mL/min/kg; an aqueous solubility of 32.2 µg/mL (≈ 155 µM).
As to `Cc1ccc(C)n1-c1ccc(CNS(C)(=O)=O)cc1`, the aqueous solubility amounted to 24.2 µg/mL (≈ 86.9 µM).
Still for that read-out and setting: under `COC(=O)Nc1nc2ccccc2[nH]1` stands 8.05 µg/mL (≈ 42.1 µM).
In turn, `N#Cc1cccc(CN2CCOC[C@H](O)C2)c1` had an intrinsic clearance, human liver microsomes of 7.9 mL/min/kg; an intrinsic clearance, rat liver microsomes of 12 mL/min/kg; an aqueous solubility of 21.1 µg/mL (≈ 90.9 µM).
The compound `CC(=O)Nc1ccc(C(=O)Nc2cc(-c3cccs3)ccc2N)cc1` came in with an intrinsic clearance, human liver microsomes of 9.52 mL/min/kg and an intrinsic clearance, rat liver microsomes of 65.2 mL/min/kg.
For the compound `CCC(=O)N1CCCc2cc(C(O)CN3CCN(c4ccc(OC)cc4)CC3)ccc21` (stereo not drawn), the MDR1-MDCK efflux ratio came to 1.69; the intrinsic clearance, human liver microsomes is 167 mL/min/kg; the intrinsic clearance, rat liver microsomes stood at 283 mL/min/kg; the aqueous solubility came to 70 µg/mL (≈ 165 µM).
Consider `CCCC(=O)Nc1ccc(C(=O)N(C)C)cc1`, for which the MDR1-MDCK efflux ratio stood at 1.41; the intrinsic clearance, human liver microsomes was determined as 22.2 mL/min/kg; the intrinsic clearance, rat liver microsomes turned out to be 50.7 mL/min/kg.
`CC(C)c1cc(C(=O)Nc2ncccc2Cl)no1` gave an intrinsic clearance, human liver microsomes of 88.3 mL/min/kg and an intrinsic clearance, rat liver microsomes of 65.1 mL/min/kg.
Consider `CC(C)c1nnc(CN2CCN(c3nccs3)CC2)o1`, for which the MDR1-MDCK efflux ratio was 0.971; the intrinsic clearance, human liver microsomes was at most 4.74 mL/min/kg; the intrinsic clearance, rat liver microsomes came out at 122 mL/min/kg; the aqueous solubility is 52.1 µg/mL (≈ 177 µM).
On to `Cc1cc(C(F)(F)F)nc(CCNC(=O)N(C)Cc2c(C)noc2C)n1`, for which the MDR1-MDCK efflux ratio is 16.4; the intrinsic clearance, human liver microsomes was determined as 172 mL/min/kg; the intrinsic clearance, rat liver microsomes amounted to 578 mL/min/kg.
Regarding `O=C(c1ccc2c(c1)CCCC2)N1CCOCC1c1ccn[nH]1` (stereo not drawn), the MDR1-MDCK efflux ratio stood at 4.04.
As to `O=C(O)c1ccccc1COc1cccc2cccnc12`, the MDR1-MDCK efflux ratio is 1.76; the intrinsic clearance, human liver microsomes was at most 4.74 mL/min/kg; the intrinsic clearance, rat liver microsomes was found to be 12.4 mL/min/kg.
As to `Cc1ccccc1-n1nc(C(C)(C)C)cc1N`, the MDR1-MDCK efflux ratio turned out to be 0.607; the intrinsic clearance, human liver microsomes turned out to be 6.55 mL/min/kg; the intrinsic clearance, rat liver microsomes is at most 10.7 mL/min/kg; the aqueous solubility was 44.8 µg/mL (≈ 195 µM).
For `O=C(c1ccc(Oc2ccccc2)cc1Cl)c1c[nH]c2ncnc(N[C@@H]3CC[C@@H](CO)OC3)c12`, the MDR1-MDCK efflux ratio amounted to 6.8; the fraction unbound, human plasma was determined as 0.00341; the fraction unbound, rat plasma turned out to be 0.00506; the intrinsic clearance, human liver microsomes is at most 4.74 mL/min/kg. Also, the intrinsic clearance, rat liver microsomes is at most 10.7 mL/min/kg.
Consider `CC(C)(C)c1ccc(C(O)CN2CCC(O)(c3ccc4c(c3)OCO4)CC2)cc1` (stereo not drawn), for which the MDR1-MDCK efflux ratio was 0.698; the fraction unbound, human plasma turned out to be 0.0601; the intrinsic clearance, human liver microsomes stood at 45.8 mL/min/kg.
Consider `Cc1ccc(-c2ccnc(O)c2C#N)cc1`, for which the MDR1-MDCK efflux ratio amounted to 0.966; the intrinsic clearance, human liver microsomes was at most 4.74 mL/min/kg; the intrinsic clearance, rat liver microsomes is 18.9 mL/min/kg; the aqueous solubility stood at 11.7 µg/mL (≈ 55.7 µM).
In the case of `O=C(NCCc1ccc(O)c(O)c1)Nc1ccccn1`, the intrinsic clearance, human liver microsomes is at most 4.74 mL/min/kg; the intrinsic clearance, rat liver microsomes was 149 mL/min/kg; the aqueous solubility is 47.5 µg/mL (≈ 174 µM).
For `Cc1ncsc1C(=O)N1C[C@@H]2CCCN(C(=O)c3scnc3C)[C@@H]2C1`, the MDR1-MDCK efflux ratio is 82; the intrinsic clearance, human liver microsomes was at most 4.74 mL/min/kg; the intrinsic clearance, rat liver microsomes is 11 mL/min/kg; the aqueous solubility was found to be 75.9 µg/mL (≈ 202 µM).
For `CC(=O)N1CCCN(Cc2c(C)nn(C)c2Cl)CC1`, in that order: 3.19, 11.6 mL/min/kg, 43.7 mL/min/kg and 41.1 µg/mL (≈ 144 µM).
Take `O=C(Nc1ccc(F)cc1)[C@H](O)c1ccccc1`: the aqueous solubility came out at 42.9 µg/mL (≈ 175 µM).
Take `CNC(=O)CC1CCN(c2ncccn2)CC1`: the MDR1-MDCK efflux ratio amounted to 0.823; the intrinsic clearance, human liver microsomes is at most 4.74 mL/min/kg; the intrinsic clearance, rat liver microsomes is at most 10.7 mL/min/kg; the aqueous solubility was found to be 50 µg/mL (≈ 213 µM).
On to `Cc1nc(NC2(c3cccc(Cl)c3)CC2)c2c(C)noc2n1`, for which the MDR1-MDCK efflux ratio was 0.871; the intrinsic clearance, human liver microsomes was determined as 9.21 mL/min/kg; the intrinsic clearance, rat liver microsomes was 254 mL/min/kg; the aqueous solubility is 41.4 µg/mL (≈ 131 µM).
On the same counts, the results for `Cc1cc(-c2ccc(N)nc2)cc(C2CCN(C(=O)CCCc3ccc(F)c(C)c3)CC2)n1` are 2.7, 963 mL/min/kg, 1910 mL/min/kg and 8.44 µg/mL (≈ 18.9 µM).
